Reference: patent US7105470B1, “Herbicidal compositions for tolerant or resistant soybean crops” (Hoechst Schering AgrEvo GmbH, priority 1998, dated 2006)
Structures can show the parent of a compound that is named as a salt.

Experiments:
Type in all cases: in vivo
Equisetum arvense = test: Field trial with soybeans, herbicidal action; conditions: 4–6 leaf stage, scoring 3 weeks after application
Experimental: (§1) Transgenic soybean plants with a resistance to one or more herbicides (A) together with typical weed plants were grown in the open on 2×5 m plots under natural field conditions; alternatively, weed infestation occurred naturally when the soybean plants were grown.
(§2) […] The damage to, and the development of, all aerial parts of the plants was recorded. Scoring was done on the basis of a percentage sale (100% action all plants destroyed; 50% action=50% of the plants and green parts of the plants destroyed; 0% action=no recognizable effect=like control plot. The mean of the score values of in each case 4 plots was calculated.

Digitalis abscendens = test: Field trial with soybeans, herbicidal action; conditions: application middle-end of stocking, scoring 3 weeks after application
Experimental: as §1, §2

Portulaca oleracea = test: Field trial with soybeans, herbicidal action; conditions: 8–10 leaf stage, scoring 32 days after application
Experimental: as §1, §2

[1] = system: Soja LL (glufosinate-tolerant soybean culture); test: Field trial with soybeans, tolerance by crop plants
Experimental: as §1
(§3) 2, 4, 6 and 8 weeks after the application, the herbicidal activity of the active substances or active substance mixtures was scored visually with reference to the treated plots in comparison to untreated control plots. The damage to, and the development of, all aerial parts of the plants was recorded. Scoring was done on the basis of a percentage sale (100% action all plants destroyed; 50% action=50% of the plants and green parts of the plants destroyed; 0% action=no recognizable effect=like control plot. The mean of the score values of in each case 4 plots was calculated.

Pharbitis purpureum = test: Field trial with soybeans, herbicidal action; conditions: 3-leaf stage, scoring 42 days after application
Experimental: as §1, §3

Abutilon theophrasti = test: Field trial with soybeans, herbicidal action; conditions: 4-leaf stage, scoring 42 days after application
Experimental: as §1, §3

Xanthium orientalis = test: Field trial with soybeans, herbicidal action; conditions: 5-leaf stage, scoring 28 days after application
Experimental: as §1, §3

Eleusine indica = test: Field trial with soybeans, herbicidal action; conditions: 3-leaf stage, scoring 42 days after application
Experimental: as §1, §3

Sorghum sudaneus = test: Field trial with soybeans, herbicidal action; conditions: 4-leaf stage, scoring 28 days after application
Experimental: as §1, §3

Sida rombifolia = test: Field trial with soybeans, herbicidal action; conditions: 4-leaf stage, scoring 43 days after application
[2] = Table 8, 50 g of a.s./ha, 4-leaf stage, scoring 43 days after application

## CP(=O)(O)CCC(N)C(=O)O (centres unmarked) [(A1.2), glufosinate-monoammonium salt]
Equisetum arvense; 400 g of a.s./ha
  Herbicidal action (%) against Equisetum arvense: 70%
Digitalis abscendens; 1200 g of a.s./ha
  Herbicidal action (%) against Digitalis abscendens: 36%
Portulaca oleracea; 250 g of a.s./ha
  Herbicidal action (%) against Portulaca oleracea: 20%
Portulaca oleracea; 500 g of a.s./ha
  Herbicidal action (%) against Portulaca oleracea: 65%
[1]; Table 5, 250 g of a.s./ha, 8–10 leaf stage, scoring 32 days after application
  Herbicidal action (%) against Soja LL: 0%
[1]; Table 5, 500 g of a.s./ha, 8–10 leaf stage, scoring 32 days after application
  Herbicidal action (%) against Soja LL: 0%
[1]; Table 6, 200 g of a.s./ha, 3-leaf stage, scoring 42 days after application
  Herbicidal action (%) against Soja LL: 0%
[1]; Table 6, 500 g of a.s./ha, 3-leaf stage, scoring 42 days after application
  Herbicidal action (%) against Soja LL: 0%
[1]; Table 7, 200 g of a.s./ha, 3-leaf stage, scoring 42 days after application
  Herbicidal action (%) against Soja LL: 0%
[1]; Table 7, 400 g of a.s./ha, 3-leaf stage, scoring 42 days after application
  Herbicidal action (%) against Soja LL: 0%
[1]; Table 8, 150 g of a.s./ha, 4-leaf stage, scoring 43 days after application
  Herbicidal action (%) against Soja LL: 0%
[1]; Table 8, 300 g of a.s./ha, 4-leaf stage, scoring 43 days after application
  Herbicidal action (%) against Soja LL: 0%
Pharbitis purpureum; 200 g of a.s./ha
  Herbicidal action (%) against Pharbitis purpureum: 35%
Pharbitis purpureum; 400 g of a.s./ha
  Herbicidal action (%) against Pharbitis purpureum: 72%
Abutilon theophrasti; 330 g of a.s./ha
  Herbicidal action (%) against Abutilon theophrasti: 45%
Abutilon theophrasti; 500 g of a.s./ha
  Herbicidal action (%) against Abutilon theophrasti: 95%
Xanthium orientalis; 300 g of a.s./ha
  Herbicidal action (%) against Xanthium orientalis: 96%
Xanthium orientalis; 500 g of a.s./ha
  Herbicidal action (%) against Xanthium orientalis: 98%
Eleusine indica; 200 g of a.s./ha
  Herbicidal action (%) against Eleusine indica: 40%
Eleusine indica; 500 g of a.s./ha
  Herbicidal action (%) against Eleusine indica: 80%
Sorghum sudaneus; 300 g of a.s./ha
  Herbicidal action (%) against Sorghum sudaneus: 15%
Sorghum sudaneus; 500 g of a.s./ha
  Herbicidal action (%) against Sorghum sudaneus: 65%
Sida rombifolia; 150 g of a.s./ha
  Herbicidal action (%) against Sida rombifolia: 25%
Sida rombifolia; 300 g of a.s./ha
  Herbicidal action (%) against Sida rombifolia: 65%

## CCc1cnc(C2=NC(C)(C(C)C)C(=O)N2)c(C(=O)O)c1 (centres unmarked) [(A3.2), imazethapyr]
[1]; in vivo
  Herbicidal action (%) against Soja LL: 0%
Eleusine indica; 50 g of a.s./ha
  Herbicidal action (%) against Eleusine indica: 27%

## COCc1cnc(C2=NC(C)(C(C)C)C(=O)N2)c(C(=O)O)c1 (centres unmarked) [(A3.5), imazamox]
[1]; Table 7, 30 g of a.s./ha, 3-leaf stage, scoring 42 days after application
  Herbicidal action (%) against Soja LL: 0%
Pharbitis purpureum; 30 g of a.s./ha
  Herbicidal action (%) against Pharbitis purpureum: 40%

## CCCN(CCC)c1c([N+](=O)[O-])cc(C(F)(F)F)cc1[N+](=O)[O-] [(B1.1), trifluralin]
Xanthium orientalis; 960 g of a.s./ha
  Herbicidal action (%) against Xanthium orientalis: 0%

## CCc1cccc(C)c1N(C(=O)CCl)C(C)COC (centres unmarked) [(B1.5), metolachlor]
Portulaca oleracea; 2240 g of a.s./ha
  Herbicidal action (%) against Portulaca oleracea: 30%
[1]; Table 5, 2240 g of a.s./ha, 8–10 leaf stage, scoring 32 days after application
  Herbicidal action (%) against Soja LL: 0%

## Cc1ccn2nc(S(=O)(=O)Nc3c(F)cccc3F)nc2n1 [(B1.6), flumetsulam]
Abutilon theophrasti; 35 g of a.s./ha
  Herbicidal action (%) against Abutilon theophrasti: 52%

## COCC(C)N(C(=O)CCl)c1c(C)csc1C (centres unmarked) [(B1.7), dimethenamid]
Abutilon theophrasti; 1500 g of a.s./ha
  Herbicidal action (%) against Abutilon theophrasti: 30%

## CCc1cccc(CC)c1N(COC)C(=O)CCl [(B1.8), alachlor]
Digitalis abscendens; 2580 g of a.s./ha
  Herbicidal action (%) against Digitalis abscendens: 48%

## CON(C)C(=O)Nc1ccc(Cl)c(Cl)c1 [(B1.9), linuron]
Sorghum sudaneus; 750 g of a.s./ha
  Herbicidal action (%) against Sorghum sudaneus: 15%

## C#CCN1C(=O)COc2cc(F)c(N3C(=O)C4=C(CCCC4)C3=O)cc21 [(B1.15), flumioxazin]
Portulaca oleracea; 100 g of a.s./ha
  Herbicidal action (%) against Portulaca oleracea: 65%
[1]; Table 5, 100 g of a.s./ha, 8–10 leaf stage, scoring 32 days after application
  Herbicidal action (%) against Soja LL: 0%
[1]; Table 7, 12.5 g of a.s./ha, 3-leaf stage, scoring 42 days after application
  Herbicidal action (%) against Soja LL: 0%
Pharbitis purpureum; 12.5 g of a.s./ha
  Herbicidal action (%) against Pharbitis purpureum: 30%

## CC(C)N1C(=O)c2ccccc2NS1(=O)=O [(B2.2), bentazone]
[1]; Table 7, 480 g of a.s./ha, 3-leaf stage, scoring 42 days after application
  Herbicidal action (%) against Soja LL: 0%
Pharbitis purpureum; 480 g of a.s./ha
  Herbicidal action (%) against Pharbitis purpureum: 35%

## COC(=O)c1sccc1S(=O)(=O)NC(=O)Nc1nc(C)nc(OC)n1 [(B2.3), thifensulfuron-methyl]
Portulaca oleracea; 5 g of a.s./ha
  Herbicidal action (%) against Portulaca oleracea: 45%
[1]; in vivo
  Herbicidal action (%) against Soja LL: 3%
Sorghum sudaneus; 15 g of a.s./ha
  Herbicidal action (%) against Sorghum sudaneus: 13%

## CCOC(=O)C(C)OC(=O)c1cc(Oc2ccc(C(F)(F)F)cc2Cl)ccc1[N+](=O)[O-] (centres unmarked) [(B2.5), lactofen]
Equisetum arvense; 150 g of a.s./ha
  Herbicidal action (%) against Equisetum arvense: 0%
Equisetum arvense; 300 g of a.s./ha
  Herbicidal action (%) against Equisetum arvense: 0%
Abutilon theophrasti; 2240 g of a.s./ha
  Herbicidal action (%) against Abutilon theophrasti: 20%

## CCCCCOC(=O)COc1cc(N2C(=O)C3=C(CCCC3)C2=O)c(F)cc1Cl [(B2.7), flumiclorac-pentyl]
[1]; [2]
  Herbicidal action (%) against Soja LL: 0%
Sida rombifolia; 50 g of a.s./ha
  Herbicidal action (%) against Sida rombifolia: 40%

## O=C(O)c1cc(Oc2ccc(C(F)(F)F)cc2Cl)ccc1[N+](=O)[O-] [(B2.8), acifluorfen]
Sorghum sudaneus; 360 g of a.s./ha
  Herbicidal action (%) against Sorghum sudaneus: 15%

## COc1cc(Cl)nc(NC(=O)NS(=O)(=O)c2ccccc2C(=O)O)n1 [(B2.11), chlorimuron]
[1]; Table 6, 12.5 g of a.s./ha, 3-leaf stage, scoring 42 days after application
  Herbicidal action (%) against Soja LL: 0%
Eleusine indica; 12.5 g of a.s./ha
  Herbicidal action (%) against Eleusine indica: 5%

## CCOc1nc(F)cc2nc(S(=O)(=O)Nc3c(Cl)cccc3C(=O)OC)nn12 [(B2.12), cloransulam-methyl]
Portulaca oleracea; 18 g of a.s./ha
  Herbicidal action (%) against Portulaca oleracea: 73%
[1]; Table 5, 18 g of a.s./ha, 8–10 leaf stage, scoring 32 days after application
  Herbicidal action (%) against Soja LL: 2%
[1]; Table 7, 40 g of a.s./ha, 3-leaf stage, scoring 42 days after application
  Herbicidal action (%) against Soja LL: 0%
Pharbitis purpureum; 40 g of a.s./ha
  Herbicidal action (%) against Pharbitis purpureum: 45%

## Cc1cc(C)nc(NC(=O)NS(=O)(=O)c2ccccc2C(=O)OC2COC2)n1 [(B2.15), oxasulfuron]
[1]; [2]
  Herbicidal action (%) against Soja LL: 0%
Sida rombifolia; 50 g of a.s./ha
  Herbicidal action (%) against Sida rombifolia: 60%

## CCOC(=O)[C@@H](C)Oc1ccc(Oc2nc3ccc(Cl)cc3o2)cc1 [(B4.2), fenoxaprop-P-ethyl]
[1]; Table 6, 25 g of a.s./ha, 3-leaf stage, scoring 42 days after application
  Herbicidal action (%) against Soja LL: 0%
[1]; Table 6, 50 g of a.s./ha, 3-leaf stage, scoring 42 days after application
  Herbicidal action (%) against Soja LL: 0%
Eleusine indica; 25 g of a.s./ha
  Herbicidal action (%) against Eleusine indica: 30%
Eleusine indica; 50 g of a.s./ha
  Herbicidal action (%) against Eleusine indica: 70%
